# According to patent EP0073865B1, “Derivatives of iodothyronine compounds and their use in an assay for the free iodothyronine compounds” (AMERSHAM INTERNATIONAL plc, priority 1981, dated 1983):
# Legend:
# [1] = Stability of the tracer compound in water / assay buffer; format: physicochemical; details: on dilution into the assay buffer / contact with water
# [2] = target: T1, TBG (Homo sapiens, UniProt P05543); test: Displacement of 125I-T4 tracer from TBG:anti-TBG binding reagent (binding strength relative to T4); details: for binding to TBG (in words): I-125 labelled tracer
# T1 construct: from tissue; host or cells: human serum (resin stripped)
# T1 sequence (P05543 21-415): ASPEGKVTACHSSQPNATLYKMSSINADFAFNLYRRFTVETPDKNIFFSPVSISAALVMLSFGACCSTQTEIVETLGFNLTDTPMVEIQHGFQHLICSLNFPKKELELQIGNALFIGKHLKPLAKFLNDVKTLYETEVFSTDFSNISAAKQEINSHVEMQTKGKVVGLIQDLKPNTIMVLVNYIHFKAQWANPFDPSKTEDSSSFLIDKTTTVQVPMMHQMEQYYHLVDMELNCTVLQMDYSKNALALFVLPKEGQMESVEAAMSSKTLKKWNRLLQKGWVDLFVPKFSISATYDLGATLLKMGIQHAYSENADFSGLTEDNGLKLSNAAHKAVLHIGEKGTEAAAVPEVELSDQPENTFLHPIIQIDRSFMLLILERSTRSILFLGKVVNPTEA
# Procedure: (§1) Method for estimation of T4.EDTA binding strength to TBG and prealbumin relative to that of T4
# (§2) Pre-precipitated antiserum (binding reagent) to either TBG or prealbumin is incubated with a serum source of TBG or prealbumin, so that the T4 binding protein is isolated on the binding reagent. Tracer ^125I-T4 is added to the resulting complex and is thus purified. The displacement of the tracer ^125I―T4, by varying concentrations of T4 and T4.EDTA, from the TBG or prealbumin, can then be studied. The results can be used to estimate the differences in binding affinity between T4 and T4.EDTA for the two T4 binding proteins.
# • 2.1 Preparation of ^125I-T4:TBG:anti-TBG binding reagent • 2.1.1. Binding reagent preparation • 15% Donkey anti-sheep) in phosphate • 2% TBG Antiserum) buffer + 0.05% BSA
# Equal quantities of the above solutions are mixed and rotated overnight at 4° so that the final concentrations in the binding reagent are 7.5% donkey anti-sheep, and 1% TBG antiserum. Centrifugation at 900 rpm, decantation and resuspension in fresh buffer are carried out twice to wash the reagent.
# 1 ml of resin stripped human serum and 20 ml of the above binding reagents are mixed for 1 hour at room temperature. Centrifugation, decantation and resuspension in fresh buffer (phosphate + 0.05% BSA) are carried out twice.
# Typically 10 ml ofTBG:anti-TBG binding reagents, 28 ml of phosphate buffer + 0.05% BSA, and 2 ml of ^125I―T4 tracer solution (0.1 µCi high specific activity T4 per ml in phosphate buffer + 0.05% BSA) are mixed for 1 hour at room temperature. […]
# (§3) Thus the percentage bound of the tracer at different T4 and T4.EDTA concentrations, can be determined in the two systems.
# (§4) Tracer percentage bound is plotted against T4 and T4.EDTA concentrations, and from these curves an estimate of the non-specific binding can be made. The data can then be re-calculated, using this blank correction, plotted, and the T4 and T4.EDTA concentrations corresponding to a range of tracer percentage bound values can be read off the curve. […]
# [3] = system: Antisera (having low T4 cross reactivity); test: Binding to antisera having low T4 cross reactivity, compared with T3
# [4] = system: T4 antiserum; test: Affinity constant with respect to T4 antiserum, relative to T4; format: binding
# [5] = target: T2, TBPA (Homo sapiens, UniProt P02766); test: Displacement of 125I-T4 tracer from TBPA:anti-TBPA binding reagent (binding strength relative to T4); details: binding to TBPA (prealbumin), displacement of 125I-T4, 37°C
# T2 construct: from tissue; host or cells: normal serum
# Procedure: as §1, §2
# This is prepared as for the anti-TBG binding reagent except that equal volumes of 30% donkey anti-rabbit second antibody and 4% TBPA antiserum solutions were mixed to give final concentrations of 15% donkey anti-rabbit, and 2% anti-TBPA. […]
# as §3, §4
smiles,measurement,setting,value
"COC(=O)[C@H](Cc1cc(I)c(Oc2cc(I)c(O)c(I)c2)c(I)c1)NC(C)=O [N-Acetyl-thyroxine-methyl ester, N-acetyl-thyroxine-methyl ester, reference compound]",stability in water,[1],only gives useful assay results within hours of dilution into the assay buffer
same,binding to TBG (in words),[2],binds appreciably to TBG
"O=C(O)CN(CCN(CC(=O)O)CC(=O)NC(Cc1cc(I)c(Oc2ccc(O)c(I)c2)c(I)c1)C(=O)O)CC(=O)O (centres unmarked) [T3.EDTA, 2-carboxy-6,9-dicarboxymethyl-1 3',5' di-iodo-4' (3""-iodo-4""-hydroxy)phenoxy phenyl 4-oxo-3,6,9-triazaundecan-11-oic acid.]",binding to Antisera compared with T3,[3],"equal, or better, binding than T3 itself"
"O=C(O)CN(CCN(CC(=O)O)CC(=O)NC(Cc1cc(I)c(Oc2cc(I)c(O)c(I)c2)c(I)c1)C(=O)O)CC(=O)O (centres unmarked) [T4.EDTA, 1-{3',5'-di-iodo-4' (3"",5""-di-iodo-4""-Hydroxyphenoxy)phenyl} 2-carboxy-6,9-dicarboxymethyl-4-oxo-3,6,9,-triazaundecan-11-oic acid]",affinity constant with respect to T4 antiserum as % of that of T4,[4],90.4%
same,stability in water,[1],stable in water
same,binding to TBG (in words),[2],no significant tendency to bind to TBG
same,affinity constant as % of the affinity constant of T4,"[2]; binding to TBG, displacement of 125I-T4, 37°C",3.5%
same,affinity constant as % of the affinity constant of T4,[5],2.7%
